Where a name gives a salt, the structure may show the parent alone.
Legend:
[1] = tested on: DBA/2 mice (audiogenic seizures); test: In vivo anticonvulsant activity in the DBA/2 mouse model (mouse audiogenic assay); settings: 10 mg/kg intraperitoneally 30 minutes prior to auditory stimulus (12 KHz sine wave, 110-120 db, 60 seconds), inhibition relative to vehicle controls
Procedure: As discussed above, preferred compounds of the invention are active in a standard anticonvulsant in vivo audiogenic test, such as the audiogenic mouse assay of Example 6 which follows, where DBA/2 mice about 20-23 days old are injected intraperitoneally with a test compound 30 minutes prior to being placed in a bell jar with exposure to auditory stimulus of 12 KHz sine wave at 110-120 db. References herein in vivo “audiogenic assay” are intended to refer to that protocol. […] As discussed above, activity in the audiogenic assay has been recognized as indicative that a test compound has neuroprotective properties. See, e.g., M. Tricklebank et al., European Journal of Pharmacology, supra; T. Seyfried, Federation Proceedings, supra.
Compounds were tested for their effectiveness in preventing seizures in DBA/2 mice which have a unique sensitivity to auditory stimulation. Exposure to loud high-frequency sounds can trigger seizure activity in these animals. […]
Mice were injected intraperitoneally with the compound specified in Table I below or with vehicle control, 30 minutes prior to being placed in a bell jar and turning on the auditory stimulus (12 KHz sine wave at 110-120 db). […] The auditory stimulus was left on for 60 seconds and mice reactions were timed and recorded. Percentage inhibition was determined with reference to vehicle controls.

melting point [°C]	Structure (SMILES)	Audiogenic Response % Inhib. [1] [%]
242 to 244	Cl.N=C(N)N1[C@@H](c2ccccc2)CC[C@H]1c1ccccc1	
82 to 84	Cl.N=C(Nc1ccccc1)N1[C@@H](c2ccccc2)CCC[C@H]1c1ccccc1	

Continued, molecule first:

Structure (SMILES)	melting point [°C]	Audiogenic Response % Inhib. [1] [%]
Cc1ccc([C@H]2CCC[C@H](c3ccc(C)cc3)N2C(=N)N)cc1.Cl	120	
CC(C)c1ccc([C@H]2CCC[C@@H](c3ccc(C(C)C)cc3)N2C(=N)N)cc1.Cl [Example 2, N-carboximidamide-r-2,c-6-di(4-isopropylphenyl)piperidine]	197 to 199	69
Cc1ccc([C@H]2CCC[C@@H](c3ccc(C)cc3)N2C(=N)N)cc1 (as salt: mesylate) [Example 1, N-carboximidamide-r-2, c-6-di(4-methylphenyl)piperidine]	183 to 185	
Cc1ccc([C@H]2CCC[C@@H](c3ccc(C)cc3)N2C(=N)N)cc1 [Example 1, N-carboximidamide-r-2, c-6-di(4-methylphenyl)piperidine]		42
